Test results from US10689381B2 (priority 2017, dated 2020).
Read-outs that look alike come from different tables or passages of the source.

What was measured:
[1] = system: HCT116; assay: cells; format: cell-based, human; details: for potency relative to vinblastine (more potent): vinblastine-sensitive cell lines
In short: (§1)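 Compound exposure ran 72 h at six concentrations (0–1000 nM or 0–10000 nM, duplicate) on cells plated at 30,000 cells/mL in 10% FBS DMEM. A closing 37 °C incubation took 15 min (HCT116) or 5 min (L1210).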

[2] = system: HCT116/VM46; assay: cells; format: cell-based, human
Method: Compounds were tested for their cell growth inhibition of L1210 (ATCC no. CCL-219, mouse lymphocytic leukemia), HCT116 (ATCC no. CCL-247, human colorectal carcinoma), and HCT116/VM46 (a vinblastine-resistant strain of HCT116) cells in culture. A population of cells (>1×10^6 cells/mL as determined with a hemocytometer) was diluted with Dulbecco's Modified Eagle Medium (DMEM, Gibco) containing 10% fetal bovine serum (FBS, Gibco) to give a final concentration of 30,000 cells/mL. To each well of a 96-well plate (Corning® Costar®) was added 100 μL of the cell media solution with a multichannel pipet. The cultures were incubated at 37° C. in an atmosphere of 5% CO2 and 95% humidified air for 24 hours.
The test compounds were then added to the plate as follows: test compounds were diluted in DMSO to a concentration of 1 mM. 10-Fold serial dilutions in DMSO were next performed on a separate 96-well plate. Fresh culture media (100 μL) was added to each well of cells resulting in 200 μL of medium per well followed by 2 μL of each test agent. Compounds were tested in duplicate (n=2-8 times) at six concentrations between 0-1000 nM or 0-10000 nM. Following the addition of compound, cultures were incubated for an additional 72 hours.
The plates were incubated at 37° C. for 5 minutes (L1210) or 15 min (HCT116 and HCT116/VM46). After the given incubation time, 50 μL of 0.1 N NaOH was added to each well and the absorption at 405 nm was determined using a 96 well plate reader. […]

[3] = system: L1210; assay: cells; format: cell-based, mouse
In short: as §1

[4] = system: Tubulin; details: for percent (%) displacement of tubulin-bound BODIPY-vinblastine: FIG. 2, competitive ligand 18 μM; for % displacement: Table 9, displacement of tubulin bound BODIPY-vinblastine
Method: Control studies were performed with BODIPY-VBL in the absence of a competitive ligand (control 1, maximum FI enhancement) and in the absence of tubulin (control 2, no FI enhancement). Percent (%) BODIPY-VBL displacement was calculated by the formula: (control 1 FI−experiment FI)/(Control 1 FI−Control 2 FI)×100%. Reported values are the average of 5 measurements±SD.

[5] = system: A549-T24; assay: cells; format: cell-based, human
From the text: (§2) 2001, 98:11737; Kavallaris et al., Brit. J. Cancer. 1999, 80:1020; and Kavallaris et al., J. Clin. Invest. 1997, 100:1282]. As a result, the comparison of cell growth inhibition of candidate drugs against A549 vs A549-T24 has been used to characterize potential resistance due to increased expression of class III β-tubulin [Goncalves et al., Proc. Natl. Acad. Sci. USA. 2001, 98:11737; Kavallaris et al., Brit. J. Cancer. 1999, 80:1020; and Kavallaris et al., J. Clin. Invest. 1997, 100:1282].

[6] = system: A549; assay: cells; format: cell-based, human
From the text: as §2

[7] = system: HCT116; details: recent work, Gotoh et al. 2011; cited from earlier work
[8] = table in Background, C20′ substituent X, read-out: IC50, HCT116
[9] = table in Background, C20′ substituent X, read-out: IC50, HCT116/VM46
[10] = Homo sapiens, HCT-116, table b183, read-out: IC50 HCT116
[11] = Homo sapiens, A549, read-out: IC50 A549
[12] = Table 9, read-out: IC50 (nM, HCT116)
[13] = Table 10, read-out: IC50 (nM), HCT116
[14] = Table 5, read-out: IC50 HCT116/VM46
[15] = table b183, value in parentheses

CCC1C[C@H]2CN(CCc3c([nH]c4ccccc34)[C@@](C(=O)OC)(c3cc4c(cc3OC)N(C)[C@H]3[C@@](O)(C(=O)OC)[C@H](OC(C)=O)[C@]5(CC)C=CCN6CC[C@]43[C@@H]65)C2)C1 (stereo partly shown) [Compound 4, reference compound]
IC50 [1, 8]: 60 nM
IC50 [2, 9]: 600 nM

CCC1(NC(=O)c2ccccc2)CC2CN(CCc3c([nH]c4ccccc34)C(C(=O)OC)(c3cc4c(cc3OC)N(C)C3C(O)(C(=O)OC)C(OC(C)=O)C5(CC)C=CCN6CCC43C65)C2)C1 (stereo not shown) [Compound 24]
IC50 ([3]; Table 2): 1.1 nM
potency relative to saturated cyclohexyl counterpart Compound 20 (more potent) [1]: > 50 fold
IC50 ([1]; Table 2, read-out: IC50 HCT116): 0.8 nM
potency relative to vinblastine (more potent) [1]: > 5 fold
percent (%) displacement of tubulin-bound BODIPY-vinblastine [4]: 72±4%

CCC1(O)C[C@H]2CN(CCc3c([nH]c4ccc(F)cc34)[C@@](C(=O)OC)(c3cc4c(cc3OC)N(C)C3C(O)(C(=O)OC)[C@H](OC(C)=O)[C@]5(CC)C=CCN6CC[C@]43[C@@H]65)C2)C1 (stereo partly shown) [Compound 187, 10′-fluorovinblastine, reference compound]
IC50 ([3]; Mus musculus, L1210, Table 8, 10′-F compounds): 0.6 nM
IC50 ([3]; Mus musculus, L1210, table b183): 0.7 nM
IC50 ([1]; Homo sapiens, HCT-116, Table 8, 10′-F compounds, read-out: IC50 HCT116): 0.7 nM
IC50 [1, 10]: 0.8 nM
IC50 ([5]; Homo sapiens): < 8 nM
IC50 [6, 11]: 2.9 nM
improvement in activity over vinblastine [7]: ~10 fold

CCC1(NC(=O)c2ccc3c(c2)CCCC3)CC2CN(CCc3c([nH]c4ccccc34)C(C(=O)OC)(c3cc4c(cc3OC)N(C)C3C(O)(C(=O)OC)C(OC(C)=O)C5(CC)C=CCN6CCC43C65)C2)C1 (stereo not shown) [Compound 121]
IC50 [3]: 3 nM
IC50 ([3]; Table 4): 3.3 nM
IC50 ([1]; Table 4, read-out: IC50 HCT116): 4.9 nM
IC50 [1, 12]: 4.9 nM
IC50 [1, 13]: 4.9 nM
IC50 ([1]; read-out: IC50 HCT116): 4.9 nM
potency relative to vinblastine (more potent) [1]: about 2 fold
IC50 [5]: 6.5 nM
IC50 ([6]; read-out: IC50 A549): 7.6 nM
% displacement [4]: 63 ± 5%
relative tubulin binding affinity vs vinblastine ([4]; in words, b167): essentially indistinguishable from or perhaps slightly better than that of vinblastine

CCC1(NC(=O)C2CCNCC2)CC2CN(CCc3c([nH]c4ccccc34)C(C(=O)OC)(c3cc4c(cc3OC)N(C)C3C(O)(C(=O)OC)C(OC(C)=O)C5(CC)C=CCN6CCC43C65)C2)C1 (stereo not shown) [Compound 146]
IC50 ([3]; Table 5): 4200 nM
IC50 ([1]; Table 5, read-out: IC50 HCT116): > 10000 nM
IC50 [2, 14]: > 10000 nM

CCC1(NC(=O)c2ccc(NC(C)=O)cc2)CC2CN(CCc3c([nH]c4ccccc34)C(C(=O)OC)(c3cc4c(cc3OC)N(C)C3C(O)(C(=O)OC)C(OC(C)=O)C5(CC)C=CCN6CCC43C65)C2)C1 (stereo not shown) [Compound 58]
IC50 [3]: 0.06 nM
IC50 ([3]; Table 2): 1.6 nM
IC50 ([1]; Table 2, read-out: IC50 HCT116): 0.8 nM
IC50 ([1]; read-out: IC50 HCT116): 0.07 nM
IC50 [5]: 0.13 nM
IC50 ([6]; read-out: IC50 A549): 0.17 nM

CC[C@]1(N)C[C@H]2CN(CCc3c([nH]c4ccccc34)[C@@](C(=O)OC)(c3cc4c(cc3OC)N(C)[C@H]3[C@@](O)(C(=O)OC)[C@H](OC(C)=O)[C@]5(CC)C=CCN6CC[C@]43[C@@H]65)C2)C1 [Compound 6, 20′-aminovinblastine]
IC50 [1, 8]: 600 nM
IC50 [2, 9]: > 10000 nM

CC[C@]1(NC(=O)c2ccc(C#N)cc2)C[C@H]2CN(CCc3c([nH]c4ccccc34)[C@@](C(=O)OC)(c3cc4c(cc3OC)N(C)[C@H]3[C@@](O)(C(=O)OC)[C@H](OC(C)=O)[C@]5(CC)C=CCN6CC[C@]43[C@@H]65)C2)C1 [Compound 54]
IC50 ([3]; Table 2): 4.4 nM
IC50 ([1]; Table 2, read-out: IC50 HCT116): 3.1 nM
percent (%) displacement of tubulin-bound BODIPY-vinblastine [4]: 56±5%

CC[C@]1(N=[N+]=[N-])C[C@H]2CN(CCc3c([nH]c4ccccc34)[C@@](C(=O)OC)(c3cc4c(cc3OC)N(C)[C@H]3[C@@](O)(C(=O)OC)[C@H](OC(C)=O)[C@]5(CC)C=CCN6CC[C@]43[C@@H]65)C2)C1 [Compound 5, 20′-azidovinblastine]
IC50 [1, 8]: 690 nM
IC50 [2, 9]: 5500 nM

CCC1(NC(=O)c2ccc(NC(=O)OC(C)(C)C)cc2)CC2CN(CCc3c([nH]c4ccccc34)C(C(=O)OC)(c3cc4c(cc3OC)N(C)C3C(O)(C(=O)OC)C(OC(C)=O)C5(CC)C=CCN6CCC43C65)C2)C1 (stereo not shown) [Compound 60]
IC50 [3]: 0.06 nM
IC50 ([3]; Table 2): 0.3 nM
IC50 ([1]; Table 2, read-out: IC50 HCT116): 0.3 nM
IC50 ([1]; read-out: IC50 HCT116): 0.07 nM
IC50 [5]: 0.09 nM
IC50 ([6]; read-out: IC50 A549): 0.19 nM

CC(=O)O[C@H]1C(=O)[C@@]2(C)[C@H]([C@H](OC(=O)c3ccccc3)[C@]3(O)C[C@H](OC(=O)[C@H](O)[C@@H](NC(=O)c4ccccc4)c4ccccc4)C(C)=C1C3(C)C)[C@]1(OC(C)=O)CO[C@@H]1C[C@@H]2O [Taxol, reference compound]
IC50 [1, 10]: 4.1 nM
IC50 ([2]; Homo sapiens, HCT-116/VM46, table b183, read-out: IC50 HCT116/VM46): > 200 nM
Measured fold resistant vs wt HCT116 [2, 15]: > 50
loss in potency A549-T24 relative to wild type A549 [5]: 10 fold
IC50 ([5]; Homo sapiens): 70 nM
Measured fold resistant vs wt A549 [5, 15]: 10
IC50 [6, 11]: 7.1 nM
IC50 ([6]; Homo sapiens, A549, read-out: IC50 wild type A549): 7.1 nM

CC[C@]1(NC(=O)c2ccc(NS(C)(=O)=O)cc2)C[C@H]2CN(CCc3c([nH]c4ccccc34)[C@@](C(=O)OC)(c3cc4c(cc3OC)N(C)[C@H]3[C@@](O)(C(=O)OC)[C@H](OC(C)=O)[C@]5(CC)C=CCN6CC[C@]43[C@@H]65)C2)C1 [Compound 61]
IC50 [3]: 0.06 nM
IC50 ([3]; Table 2): 0.4 nM
IC50 ([1]; Table 2, read-out: IC50 HCT116): 0.3 nM
IC50 ([1]; read-out: IC50 HCT116): 0.07 nM
IC50 [5]: 0.26 nM
IC50 ([6]; read-out: IC50 A549): 0.53 nM

CC[C@]1(NC(=O)c2ccc(C)c(C)c2)C[C@H]2CN(CCc3c([nH]c4ccccc34)[C@@](C(=O)OC)(c3cc4c(cc3OC)N(C)[C@H]3[C@@](O)(C(=O)OC)[C@H](OC(C)=O)[C@]5(CC)C=CCN6CC[C@]43[C@@H]65)C2)C1 [Compound 28]
IC50 [3]: 3 nM
IC50 ([3]; Table 2): 3 nM
IC50 ([1]; Table 2, read-out: IC50 HCT116): 4.5 nM
IC50 [1, 12]: 4.5 nM
IC50 [1, 13]: 4.5 nM
IC50 ([1]; read-out: IC50 HCT116): 4.5 nM
IC50 ([2]; Table 2, read-out: IC50 HCT116/VM46): 7.6 nM
IC50 ([2]; Table 10, read-out: IC50 (nM), HCT116/VM46): 7.6 nM
IC50 ([2]; read-out: IC50 HCT116/VM46): 7.6 nM
IC50 [5]: 2.5 nM
IC50 ([6]; read-out: IC50 A549): 5 nM
% displacement [4]: 67 ± 8%

CC[C@]1(NC(=O)c2ccc(N(C)C)cc2)C[C@H]2CN(CCc3c([nH]c4ccccc34)[C@@](C(=O)OC)(c3cc4c(cc3OC)N(C)[C@H]3[C@@](O)(C(=O)OC)[C@H](OC(C)=O)[C@]5(CC)C=CCN6CC[C@]43[C@@H]65)C2)C1 [Compound 64]
IC50 ([3]; Table 2): 0.18 nM
IC50 ([1]; Table 2, read-out: IC50 HCT116): 0.18 nM
percent (%) displacement of tubulin-bound BODIPY-vinblastine [4]: 88±5%

CCC1(NC(=O)c2cn(C)cn2)CC2CN(CCc3c([nH]c4ccccc34)C(C(=O)OC)(c3cc4c(cc3OC)N(C)C3C(O)(C(=O)OC)C(OC(C)=O)C5(CC)C=CCN6CCC43C65)C2)C1 (stereo not shown) [Compound 142]
IC50 ([3]; Table 5): 80 nM
IC50 ([1]; Table 5, read-out: IC50 HCT116): 50 nM
IC50 [2, 14]: > 1000 nM
